# Earlier results, collected in article PMC9981747, “A covalent BTK ternary complex compatible with targeted protein degradation” (Nature Communications, 2023).
# Tests used:
# [1] = design: method as in PMID 27274052; conditions: cited from earlier work
# [2] = design: method as in PMID 31879210; conditions: 1 mg/kg IV; cited from earlier work
SMILES,concentrations in sub-chronic tumor growth inhibition study ([1]; in 4 of 8 rodents tested) [nM],"Cmax ([1]; single 10 mg/kg sc dose, read-out: plasma Cmax) [nM]",exposure [2]
Cc1ncsc1-c1ccc([C@H](C)NC(=O)[C@@H]2C[C@@H](O)CN2C(=O)[C@@H](NC(=O)COCCCOCCNC(=O)C[C@@H]2N=C(c3ccc(Cl)cc3)c3c(sc(C)c3C)-n3c(C)nnc32)C(C)(C)C)cc1 [ARV-771],> 2000,~1700,–
Nc1ncnc2c1c(-c1ccc(Oc3ccccc3)cc1)nn2C1CCN(CCOCCOCCOc2ccc3c(c2)CN(C2CCC(=O)NC2=O)C3=O)CC1 (stereo not drawn) [SJF620],–,–,micromolar exposures
